From the kinase profiling compilation of Christmann-Franck et al. (2016)

Assays:
Assay in all cases: radiometric filter-binding kinase assay, Kinase HotSpot
Conditions in all cases: compound 0.5 µM; ATP 10 µM
[1] = biological target: MAP3K9 (human) (UniProt P80192)
[2] = biological target: STK4 (human) (UniProt Q13043)
[3] = biological target: YES1 (human) (UniProt P07947)
[4] = biological target: FGR (human) (UniProt P09769)
[5] = biological target: FES (human) (UniProt P07332)
[6] = biological target: BMX (human) (UniProt P51813)
[7] = biological target: DAPK1 (human) (UniProt P53355)
[8] = biological target: HCK (human) (UniProt P08631)
[9] = biological target: PRKCB1 (human) (UniProt P05771)
[10] = biological target: HIPK2 (human) (UniProt Q9H2X6)
[11] = biological target: RPS6KA6 KD1 KD2 (human) (UniProt Q9UK32)
[12] = biological target: WNK2 (human) (UniProt Q9Y3S1)
[13] = biological target: MARK3 (human) (UniProt P27448)
[14] = biological target: EPHA5 (human) (UniProt P54756)
[15] = biological target: STK24 (human) (UniProt Q9Y6E0)
[16] = biological target: MST4 (human) (UniProt Q9P289)
[17] = biological target: PTK2B (human) (UniProt Q14289)
[18] = biological target: CLK4 (human) (UniProt Q9HAZ1)
[19] = biological target: PLK3 (human) (UniProt Q9H4B4)
[20] = biological target: PLK1 (human) (UniProt P53350)
[21] = biological target: RPS6KB2 (human) (UniProt Q9UBS0)
[22] = biological target: BTK (human) (UniProt Q06187)
[23] = biological target: KDR (human) (UniProt P35968)
[24] = biological target: ITK (human) (UniProt Q08881)
[25] = biological target: NEK6 (human) (UniProt Q9HC98)
[26] = biological target: MAP2K1 (human) (UniProt Q02750)
[27] = biological target: SRPK3 (human) (UniProt Q9UPE1)
[28] = biological target: CDC42BPB (human) (UniProt Q9Y5S2)
[29] = biological target: GSG2 (human) (UniProt Q8TF76)
[30] = biological target: ERBB2 (human) (UniProt P04626)
[31] = biological target: DYRK2 (human) (UniProt Q92630)
[32] = biological target: WEE1 (human) (UniProt P30291)
[33] = biological target: AURKA (human) (UniProt O14965)
[34] = biological target: TXK (human) (UniProt P42681)
[35] = biological target: CDK9 CCNK (human) (UniProt O75909+P50750)
[36] = biological target: DSTYK (human) (UniProt Q6XUX3)
[37] = biological target: PRKACA (human) (UniProt P17612)
[38] = biological target: CSNK1D (human) (UniProt P48730)
[39] = biological target: FGFR3 (human) (UniProt P22607)
[40] = biological target: PRKCA (human) (UniProt P17252)
[41] = biological target: DCLK2 (human) (UniProt Q8N568)
[42] = biological target: SRC (human) (UniProt P12931)

Chain of WEE1 (human) (P30291 whole entry, looked up): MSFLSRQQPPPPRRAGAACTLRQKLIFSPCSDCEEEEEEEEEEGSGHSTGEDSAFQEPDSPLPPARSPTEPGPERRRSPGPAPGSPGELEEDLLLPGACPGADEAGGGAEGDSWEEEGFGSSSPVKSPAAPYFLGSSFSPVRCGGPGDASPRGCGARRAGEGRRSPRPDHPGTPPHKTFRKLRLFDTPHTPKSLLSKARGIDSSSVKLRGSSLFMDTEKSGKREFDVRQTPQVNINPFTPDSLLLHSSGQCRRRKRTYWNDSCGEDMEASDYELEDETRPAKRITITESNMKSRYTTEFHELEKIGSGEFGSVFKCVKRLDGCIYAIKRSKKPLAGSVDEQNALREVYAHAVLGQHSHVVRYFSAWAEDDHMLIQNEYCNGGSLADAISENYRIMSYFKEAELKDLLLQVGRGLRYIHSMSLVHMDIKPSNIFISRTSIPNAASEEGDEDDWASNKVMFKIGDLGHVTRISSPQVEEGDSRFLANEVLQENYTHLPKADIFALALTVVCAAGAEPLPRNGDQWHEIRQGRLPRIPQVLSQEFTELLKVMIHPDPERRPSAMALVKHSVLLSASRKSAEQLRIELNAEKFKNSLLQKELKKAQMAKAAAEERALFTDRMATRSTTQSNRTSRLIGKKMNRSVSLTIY
Chain of FGR (human) (P09769 whole entry, looked up): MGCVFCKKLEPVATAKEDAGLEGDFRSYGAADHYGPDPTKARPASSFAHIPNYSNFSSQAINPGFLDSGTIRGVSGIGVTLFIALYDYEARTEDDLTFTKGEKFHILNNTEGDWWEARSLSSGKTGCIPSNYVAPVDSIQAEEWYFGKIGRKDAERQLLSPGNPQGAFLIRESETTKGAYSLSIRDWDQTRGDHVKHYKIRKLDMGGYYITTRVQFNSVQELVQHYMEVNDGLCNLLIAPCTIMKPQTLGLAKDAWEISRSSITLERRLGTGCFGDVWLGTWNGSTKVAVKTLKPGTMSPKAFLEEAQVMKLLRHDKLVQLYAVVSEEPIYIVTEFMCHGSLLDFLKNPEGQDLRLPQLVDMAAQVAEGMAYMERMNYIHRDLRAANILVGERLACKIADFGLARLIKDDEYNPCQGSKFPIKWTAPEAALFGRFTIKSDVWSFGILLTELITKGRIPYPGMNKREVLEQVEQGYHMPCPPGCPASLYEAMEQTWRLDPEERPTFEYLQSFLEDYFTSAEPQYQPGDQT
Chain of ERBB2 (human) (P04626 whole entry, looked up): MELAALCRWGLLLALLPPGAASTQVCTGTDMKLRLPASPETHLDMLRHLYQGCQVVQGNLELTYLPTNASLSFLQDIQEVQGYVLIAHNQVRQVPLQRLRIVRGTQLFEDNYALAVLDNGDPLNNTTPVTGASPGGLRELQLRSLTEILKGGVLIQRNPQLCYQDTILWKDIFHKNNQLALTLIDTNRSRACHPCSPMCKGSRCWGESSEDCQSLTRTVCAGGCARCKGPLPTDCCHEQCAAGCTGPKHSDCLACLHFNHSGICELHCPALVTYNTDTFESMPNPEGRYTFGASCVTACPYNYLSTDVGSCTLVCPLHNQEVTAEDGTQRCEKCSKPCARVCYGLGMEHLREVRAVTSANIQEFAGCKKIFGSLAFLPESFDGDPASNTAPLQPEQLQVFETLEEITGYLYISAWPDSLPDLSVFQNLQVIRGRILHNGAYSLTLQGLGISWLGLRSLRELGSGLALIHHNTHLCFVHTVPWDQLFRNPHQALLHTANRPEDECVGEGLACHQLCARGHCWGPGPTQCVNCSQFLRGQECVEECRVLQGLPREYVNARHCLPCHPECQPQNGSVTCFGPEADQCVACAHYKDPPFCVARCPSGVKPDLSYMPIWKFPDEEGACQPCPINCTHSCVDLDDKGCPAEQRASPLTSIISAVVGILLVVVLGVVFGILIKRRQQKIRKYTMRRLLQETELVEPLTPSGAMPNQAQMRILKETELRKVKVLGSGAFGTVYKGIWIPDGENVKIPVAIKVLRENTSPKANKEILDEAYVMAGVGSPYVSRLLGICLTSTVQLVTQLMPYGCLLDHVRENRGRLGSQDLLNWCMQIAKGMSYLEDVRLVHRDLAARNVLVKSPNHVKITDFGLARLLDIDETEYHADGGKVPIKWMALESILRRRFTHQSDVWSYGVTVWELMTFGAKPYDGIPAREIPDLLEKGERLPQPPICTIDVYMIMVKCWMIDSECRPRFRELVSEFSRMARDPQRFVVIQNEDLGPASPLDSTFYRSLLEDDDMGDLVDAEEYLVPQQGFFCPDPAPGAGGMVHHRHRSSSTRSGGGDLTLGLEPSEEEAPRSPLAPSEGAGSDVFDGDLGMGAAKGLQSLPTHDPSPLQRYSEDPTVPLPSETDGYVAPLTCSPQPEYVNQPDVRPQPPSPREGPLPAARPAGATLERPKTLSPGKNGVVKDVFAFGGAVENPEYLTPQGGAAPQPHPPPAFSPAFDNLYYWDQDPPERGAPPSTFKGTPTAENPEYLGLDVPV
Chain of DCLK2 (human) (Q8N568 whole entry, looked up): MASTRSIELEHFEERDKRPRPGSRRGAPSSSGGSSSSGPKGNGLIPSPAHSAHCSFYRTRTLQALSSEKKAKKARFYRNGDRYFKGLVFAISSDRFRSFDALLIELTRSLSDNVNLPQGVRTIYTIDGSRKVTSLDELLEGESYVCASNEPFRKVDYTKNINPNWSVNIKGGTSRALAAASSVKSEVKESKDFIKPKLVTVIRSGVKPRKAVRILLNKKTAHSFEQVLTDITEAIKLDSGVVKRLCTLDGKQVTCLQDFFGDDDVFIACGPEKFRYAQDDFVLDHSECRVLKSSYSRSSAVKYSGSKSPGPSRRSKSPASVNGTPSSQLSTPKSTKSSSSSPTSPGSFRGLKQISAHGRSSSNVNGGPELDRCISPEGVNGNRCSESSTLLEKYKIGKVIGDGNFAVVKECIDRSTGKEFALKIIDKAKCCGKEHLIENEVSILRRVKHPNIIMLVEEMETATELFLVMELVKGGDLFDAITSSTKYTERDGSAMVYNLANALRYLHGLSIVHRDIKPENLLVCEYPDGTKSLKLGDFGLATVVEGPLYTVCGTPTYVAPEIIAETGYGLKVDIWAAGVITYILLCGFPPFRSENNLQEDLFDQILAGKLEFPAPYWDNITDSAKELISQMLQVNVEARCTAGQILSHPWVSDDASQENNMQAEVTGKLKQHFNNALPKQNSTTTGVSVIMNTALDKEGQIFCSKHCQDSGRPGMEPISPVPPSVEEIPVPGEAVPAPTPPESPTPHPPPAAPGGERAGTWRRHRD
Chain of CLK4 (human) (Q9HAZ1 whole entry, looked up): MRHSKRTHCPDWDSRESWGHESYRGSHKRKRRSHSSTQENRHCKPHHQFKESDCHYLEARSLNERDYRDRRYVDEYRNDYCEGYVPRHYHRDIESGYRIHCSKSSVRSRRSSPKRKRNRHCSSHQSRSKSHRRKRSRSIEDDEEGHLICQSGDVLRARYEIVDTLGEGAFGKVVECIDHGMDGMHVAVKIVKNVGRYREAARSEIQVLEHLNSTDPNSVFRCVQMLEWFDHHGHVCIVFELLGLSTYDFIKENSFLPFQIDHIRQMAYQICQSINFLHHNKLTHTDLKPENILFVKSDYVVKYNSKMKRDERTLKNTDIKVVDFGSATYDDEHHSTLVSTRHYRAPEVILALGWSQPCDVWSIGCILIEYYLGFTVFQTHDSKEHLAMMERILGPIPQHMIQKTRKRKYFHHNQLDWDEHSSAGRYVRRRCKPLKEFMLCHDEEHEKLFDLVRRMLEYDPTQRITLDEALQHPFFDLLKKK
Chain of SRPK3 (human) (Q9UPE1 whole entry, looked up): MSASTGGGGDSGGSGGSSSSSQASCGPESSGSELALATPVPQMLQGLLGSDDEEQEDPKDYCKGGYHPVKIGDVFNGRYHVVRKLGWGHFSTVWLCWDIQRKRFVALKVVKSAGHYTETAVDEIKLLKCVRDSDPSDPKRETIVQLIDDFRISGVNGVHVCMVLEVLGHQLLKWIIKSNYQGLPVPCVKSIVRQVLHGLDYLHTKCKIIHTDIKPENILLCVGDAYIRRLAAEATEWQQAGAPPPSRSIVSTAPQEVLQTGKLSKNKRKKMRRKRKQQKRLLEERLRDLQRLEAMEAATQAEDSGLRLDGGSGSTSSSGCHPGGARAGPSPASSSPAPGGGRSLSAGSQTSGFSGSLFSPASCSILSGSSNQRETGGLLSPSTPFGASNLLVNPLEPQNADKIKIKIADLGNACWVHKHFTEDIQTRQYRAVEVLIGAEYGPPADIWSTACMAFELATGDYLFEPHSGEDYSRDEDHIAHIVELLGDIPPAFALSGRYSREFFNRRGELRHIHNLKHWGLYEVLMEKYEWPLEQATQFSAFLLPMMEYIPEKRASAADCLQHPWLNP
Chain of NEK6 (human) (Q9HC98 whole entry, looked up): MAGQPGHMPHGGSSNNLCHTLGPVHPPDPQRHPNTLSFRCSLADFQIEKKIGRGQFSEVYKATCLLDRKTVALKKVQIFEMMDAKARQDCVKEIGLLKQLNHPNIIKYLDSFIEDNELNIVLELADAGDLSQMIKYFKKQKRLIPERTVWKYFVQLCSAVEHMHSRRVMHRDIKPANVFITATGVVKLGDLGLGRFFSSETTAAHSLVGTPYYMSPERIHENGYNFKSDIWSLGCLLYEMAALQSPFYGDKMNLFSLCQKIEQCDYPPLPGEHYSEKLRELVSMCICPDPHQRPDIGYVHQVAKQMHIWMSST
Chain of AURKA (human) (O14965 whole entry, looked up): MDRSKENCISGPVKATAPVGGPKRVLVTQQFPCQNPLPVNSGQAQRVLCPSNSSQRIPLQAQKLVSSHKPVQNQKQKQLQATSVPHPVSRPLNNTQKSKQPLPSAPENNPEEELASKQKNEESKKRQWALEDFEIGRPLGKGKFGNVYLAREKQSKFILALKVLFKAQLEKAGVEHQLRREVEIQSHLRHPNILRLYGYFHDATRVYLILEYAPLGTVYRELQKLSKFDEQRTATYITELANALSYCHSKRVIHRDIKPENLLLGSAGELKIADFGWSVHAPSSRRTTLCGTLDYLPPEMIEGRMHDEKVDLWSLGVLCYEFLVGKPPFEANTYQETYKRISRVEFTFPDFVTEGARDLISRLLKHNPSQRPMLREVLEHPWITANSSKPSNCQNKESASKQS

SMILES: Nc1nnc2[nH]c3ccccc3nc1-2
- residual activity [1]: 97.7%
- residual activity [2]: 94.5%
- residual activity [3]: 97.1%
- residual activity [4]: 96.3%
- residual activity [5]: 96.8%
- residual activity [6]: 99.5%
- residual activity [7]: 91.5%
- residual activity [8]: 98.6%
- residual activity [9]: 103%
- residual activity [10]: 95.9%
- residual activity [11]: 94.2%
- residual activity [12]: 95.9%
- residual activity [13]: 102%
- residual activity [14]: 90.3%
- residual activity [15]: 89.1%
- residual activity [16]: 91.2%
- residual activity [17]: 92%
- residual activity [18]: 86.9%
- residual activity [19]: 96.3%
- residual activity [20]: 94.5%
- residual activity [21]: 102%
- residual activity [22]: 93.9%
- residual activity [23]: 95.8%
- residual activity [24]: 101%
- residual activity [25]: 95.5%
- residual activity [26]: 98.8%
- residual activity [27]: 95.6%
- residual activity [28]: 100%
- residual activity [29]: 82.1%
- residual activity [30]: 95.2%
- residual activity [31]: 91.6%
- residual activity [32]: 101%
- residual activity [33]: 111%
- residual activity [34]: 97.6%
- residual activity [35]: 88.3%
- residual activity [36]: 96%
- residual activity [37]: 102%
- residual activity [38]: 94.2%
- residual activity [39]: 96.5%
- residual activity [40]: 71%
- residual activity [41]: 94.6%

SMILES: O=C1NC(=O)C(c2cn(CCCO)c3ncccc23)=C1c1cnccn1
- residual activity [1]: 85.5%
- residual activity [2]: 83.6%
- residual activity [3]: 80.1%
- residual activity [4]: 108%
- residual activity [5]: 121%
- residual activity [6]: 97.8%
- residual activity [7]: 74.4%
- residual activity [8]: 63.4%
- residual activity [42]: 78.9%
- residual activity [10]: 96.6%
- residual activity [11]: 73%
- residual activity [12]: 104%
- residual activity [13]: 87.8%
- residual activity [14]: 99.4%
- residual activity [15]: 72.1%
- residual activity [16]: 78.7%
- residual activity [17]: 94%
- residual activity [18]: 100%
- residual activity [19]: 91.1%
- residual activity [20]: 103%
- residual activity [21]: 94.7%
- residual activity [22]: 93.7%
- residual activity [23]: 82.1%
- residual activity [24]: 84.7%
- residual activity [25]: 94.2%
- residual activity [26]: 106%
- residual activity [27]: 91.2%
- residual activity [29]: 91.9%
- residual activity [30]: 106%
- residual activity [31]: 81.7%
- residual activity [32]: 96.2%
- residual activity [33]: 107%
- residual activity [34]: 75.3%
- residual activity [35]: 89.5%
- residual activity [36]: 78%
- residual activity [37]: 87.7%
- residual activity [38]: 99.4%
- residual activity [39]: 78.7%
- residual activity [40]: 91.1%
- residual activity [41]: 90.1%

SMILES: CN([C@@H](Cc1ccc(OS(=O)(=O)c2cccc3cnccc23)cc1)C(=O)N1CCN(c2ccccc2)CC1)S(=O)(=O)c1cccc2cnccc12
- residual activity [1]: 104%
- residual activity [2]: 96.8%
- residual activity [3]: 110%
- residual activity [4]: 99.5%
- residual activity [5]: 97.7%
- residual activity [6]: 97.4%
- residual activity [7]: 117%
- residual activity [8]: 97.4%
- residual activity [9]: 95.9%
- residual activity [42]: 91.3%
- residual activity [10]: 109%
- residual activity [11]: 100%
- residual activity [12]: 100%
- residual activity [13]: 93.7%
- residual activity [14]: 102%
- residual activity [15]: 102%
- residual activity [16]: 109%
- residual activity [17]: 103%
- residual activity [18]: 97.2%
- residual activity [19]: 99.3%
- residual activity [20]: 96.7%
- residual activity [21]: 96.6%
- residual activity [22]: 97.1%
- residual activity [23]: 100%
- residual activity [24]: 99.4%
- residual activity [25]: 101%
- residual activity [26]: 75.3%
- residual activity [27]: 98%
- residual activity [28]: 103%
- residual activity [29]: 94.7%
- residual activity [30]: 96%
- residual activity [31]: 97.7%
- residual activity [32]: 87.7%
- residual activity [33]: 86.2%
- residual activity [34]: 94.3%
- residual activity [35]: 89.4%
- residual activity [36]: 97.4%
- residual activity [38]: 109%
- residual activity [39]: 98.8%
- residual activity [40]: 105%
- residual activity [41]: 94.1%
